Measured values from PMC11784652, “Two complementing in vivo selection systems based on CCA-trimming exonucleases as a tool to monitor, select and evaluate enzymatic features of tRNA nucleotidyltransferases” (RNA Biology, 2025).
Substitutions are numbered along the chain they refer to.

Assays:
[1] = biological target: T1, HsaCCA (human CCA-adding enzyme, tRNA nucleotidyltransferase) (Homo sapiens, UniProt Q96Q11); test: in vitro nucleotide incorporation on […]-labelled yeast tRNA-Phe-CC; format: biochemical; conditions: 1 mM ATP, A-addition, co-substrate tRNA-Phe-CC, 37 °C; no binding to apoenzyme detected by DRaCALA
T1 construct: gene TRNT1; N-terminal His-tag, pET28a(+), expressed in E. coli BL21(DE3) delta-cca
T1 sequence (Q96Q11 30-434): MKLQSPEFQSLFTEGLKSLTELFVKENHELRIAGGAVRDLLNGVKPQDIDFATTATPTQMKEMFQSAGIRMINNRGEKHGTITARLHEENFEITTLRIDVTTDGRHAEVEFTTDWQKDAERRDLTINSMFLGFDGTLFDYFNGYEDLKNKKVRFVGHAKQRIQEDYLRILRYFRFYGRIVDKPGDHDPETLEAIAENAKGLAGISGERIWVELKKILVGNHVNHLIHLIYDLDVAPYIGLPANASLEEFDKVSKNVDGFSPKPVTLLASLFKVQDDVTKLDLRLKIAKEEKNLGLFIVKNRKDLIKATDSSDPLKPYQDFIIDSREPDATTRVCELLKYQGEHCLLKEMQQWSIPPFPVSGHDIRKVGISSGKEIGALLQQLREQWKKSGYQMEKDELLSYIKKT

[2] = biological target: T2, HsaCCA (human CCA-adding enzyme, tRNA nucleotidyltransferase) (Homo sapiens, UniProt Q96Q11, E193G); test: DRaCALA (nitrocellulose radioligand spot assay); format: binding; conditions: 4 °C, 10 min, HEPES/KOH pH 7.6, 30 mM KCl, 6 mM MgCl2, no tRNA; 1 nM labelled compound (α-32P)
T2 construct: gene TRNT1; N-terminal His-tag, pET28a(+), expressed in E. coli BL21(DE3) delta-cca
T2 sequence (Q96Q11 30-434 E193G): T1 sequence (Q96Q11 30-434) with E164G

[3] = biological target: T1, HsaCCA (human CCA-adding enzyme, tRNA nucleotidyltransferase); test: DRaCALA (nitrocellulose radioligand spot assay); format: binding; conditions: 4 °C, 10 min, HEPES/KOH pH 7.6, 30 mM KCl, 6 mM MgCl2, no tRNA; 1 nM labelled compound (α-32P)

**Q.** How did the “in vitro nucleotide incorporation on 32P-labelled yeast tRNA-Phe-CC” value [1] turn out when Nc1ncnc2c1ncn2[C@@H]1O[C@H](COP(=O)(O)OP(=O)(O)OP(=O)(O)O)[C@@H](O)[C@H]1O [ATP] was run?
**A.** Both enzyme versions readily add the terminal A if NTPs (N) or only ATP

**Q.** How did the “DRaCALA (nitrocellulose radioligand spot assay)” value [2] turn out when Nc1ccn([C@@H]2O[C@H](COP(=O)(O)OP(=O)(O)OP(=O)(O)O)[C@@H](O)[C@H]2O)c(=O)n1 [CTP] was run?
**A.** CTP binding of HsaCCA E164G seems to be less efficient compared to the wt enzyme

**Q.** What about the “DRaCALA (nitrocellulose radioligand spot assay)” value [3] of the same molecule?
**A.** Both HsaCCA wt and HsaCCA E164G showed robust interaction with CTP
